# Patent publication US20240182948A1, “METHODS AND COMPOSITIONS FOR DETECTION OF TUMOR DNA” (The Broad Institute, Inc., priority 2021, published 2024)
# System: macrophages co-incubated with apoptotic KPLG cells
# Assay: Chloroquine treatment of macrophages after co-incubation with apoptotic KPLG cells; recovery of tumor DNA from cell fractions
# Format: cell-based, murine
# Procedure: FIG. 9A: Cytoplasmic DNA mass recovered from macrophages with or without 25 μM CQ treatment for 3 hours. FIG. 9B: Nuclear DNA mass recovered from macrophages with or without 25 μM CQ treatment for 3 hours. FIG. 9C: Cytoplasmic KRAS G12D to WT ratio. Apoptotic KPLG cells were washed away after 1 hour of co-incubation with macrophages before CQ treatment. FIG. 9D: Nuclear KRAS G12D to WT ratio. Apoptotic KPLG cells were washed away after 1 hour of co-incubation with macrophages before CQ treatment.
# To test if pharmacologically blocking the DNA degradation pathway could lead to increased recovery of tumor DNA in macrophages, apoptotic KPLG cells were co-incubated with macrophage cells for 1 hour, after which apoptotic cells were washed away, and macrophages were treated either with or without 25 μM chloroquine.
# Cell lines: KPLG cells were kindly provided by the Jacks Laboratory at the Massachusetts Institute of Technology (MIT). BMDM were harvested from femurs of wild-type […] mice and DNase 2a−/− mice. KPLG cells were cultured in DMEM supplemented with 10% fetal bovine serum (Gibco) and 1% penicillin/streptomycin (Corning); BMDM cells were cultured in DMEM supplemented with 10% fetal bovine serum (Gibco) and 1% penicillin/streptomycin (Corning), and 15% L929 conditioned medium. All cells were cultured in a humidified atmosphere of 95% air and 5% CO2 at 37° C. The KPLG cell line was declared pathogen free after being subjected to murine pathogen testing by the Diagnostic Laboratory of the Division of Comparative Medicine (MIT).
# Cell fractionation and DNA extraction: Cells were collected by centrifugation at 3000×g for 7 min. The cells were lysed using four volumes of lysis buffer (20 mM Tris-HCl, pH 7.4, 10 mM KCl, 2 mM MgCl2, 1 mM DTT, and 1 mM EDTA) for 20 min. on ice. The nuclear pellet was collected by centrifugation twice at 800×g for 5 min. The mitochondrial fraction was collected by centrifugation twice at 10,000×g for 10 min. The collected supernatant was used as the cytoplasmic fraction. […]
structure (smiles),measurement,setting,value
"CCN(CC)CCCC(C)Nc1ccnc2cc(Cl)ccc12 (stereo not drawn) [Chloroquine, chloroquine]",digestion of cytoplasmic tumor-derived DNA by macrophages,"25 μM CQ treatment for 3 hours, legend of FIGS. 9A-9D",inhibits digestion
same,total cytoplasmic DNA mass recovered from macrophages,"25 μM chloroquine vs. no treatment, apoptotic KPLG cells washed away after 1 hour of co-incubation, FIG. 9A: treatment for 3 hours",increase
same,presence of KRAS G12D in the cytoplasmic DNA fraction of macrophages (KRAS G12D to WT ratio),"25 μM chloroquine vs. no treatment, apoptotic KPLG cells washed away after 1 hour of co-incubation, TaqMan qPCR",increase
